These results are taken from US9682994B2, “Inhibitors of retroviral replication” (The Scripps Research Institute, priority 2011, dated 2017).

“Also recorded” adds a separate entry of the source. Read-outs that look alike come from different tables or passages of the source.

For one data set, the target named is CDK11 (Homo sapiens, UniProt P21127). Put plainly: In vitro CDK11 kinase assay with 9G8 as substrate. It counts as biochemical. As to the method:
To the mixture, 100 μM of ATP and 5 μCi of γ-^32P-ATP (3000 Ci/mmol 10 mCi/ml) were added to a final volume of 30 μl in kinase buffer. Following 30 min at 30° C., the reaction was terminated by addition of 6 μl of 6× SDS loading buffer. After boiling for 10 min, proteins were separated by SDS-PAGE. The gel was dried and visualized by autoradiography.

Data set [1] in a line: Hepatic microsomal stability, mouse. In kind it is in vitro ADME. To be noted: 1 μM, 0.2-1 mg/ml microsomes, NADPH 1 mM.
Excerpt: In vitro studies compared murine and human hepatic microsomes (150 donor mixed male/female pool).
Data set [2] can be described thus: Aqueous solubility / formulation in water. The note with it: formulated 1 mg/mL in water. In kind it is physicochemical.
The test system of data set [3] is HIV-1 pNL4-3. Put plainly: Acute HIV-1 infection, HeLa-CD4-LTR-LacZ reporter CPRG assay. In kind it is cell-based. As for the experimental part:
Forty-eight hours post infection a quantitative chlorophenol red-β-D-galactopyranoside (CPRG) assay was performed.
Twenty-four hours later HIV-1 pNL4-3 was added to the cells of both experiment sets (MOI>>10) in the presence of testing compound or DMSO control. CPRG assay performed 48 h later.
HeLa-CD4 cells were infected with HIV-1 pNL4-3 in the presence of the indicated compounds or DMSO. Forty hours post infection a CPRG assay was performed. […] Error bars represent standard deviation.
P42 cells were plated at 1×10^4 cells per well of 96 well. Twenty-four hours later HIV-1 pNL4-3 was added to the wells in the presence of testing compound or DMSO control in a total volume of […] Forty hours post infection cells were disrupted in lysis buffer (60 mM Na2HPO4, 40 mM NaH2PO4, 10 mM KCl, 10 mM MgSO4, 2.5 mM EDTA, 50 mM β-mercaptoethanol, 0.125% Nonidet P-40) and a quantitative chlorophenol red-β-D-galactopyranoside (CPRG)-based (Boehringer Mannheim) assay was performed. The cell extracts were incubated in a reaction buffer (0.9 M phosphate buffer [pH 7.4], 9 mM MgCl2, 11 mM β-mercaptoethanol, 7 mM CPRG) until a red color developed (from approximately 10 min to 4 h) and measured with an LP400 (Becton Dickinson) plate reader at 572 nm. Experiments were performed in triplicate.
Transcription of the HIV-1 provirus is regulated by both viral and cellular transcription factors. Before Tat is produced, low-level basal transcription from the viral promoter is initiated by cellular factors, such as the nuclear factor-kappa B (NF-kB), Sp1, TATA-binding protein and RNAPII. A desirable Tat inhibitor should block Tat-mediated activation of the viral promoter without affecting its basal transcription, which would result in cellular toxicity, given the shared transcription factors of the HIV promoter and cellular genes.

For a further data set, the system named is Tat. Put plainly: Biotinylated compound streptavidin-bead pull-down of Tat. The note with it: flag-tagged Tat expressed in cells or recombinant Tat. It counts as binding, HIV-1. As for the experimental part:
HEK293T cells were transfected with flag-tagged Tat 101 a.a. (Tat-F-101-wt), a shorter Tat version with 86 a.a. (Tat-F-86-wt), Tat 86 a.a. mutated in the basic domain (Tat-F-BRM), flag-tagged CDK11 (CDK11-F), flag-tagged 9G8 (9G8-F) and empty vector control.
Recombinant Tat protein was incubated with Bio-dCA streptavidin-coated beads in the presence or absence of an excess of non-biotinylated dCA (represented as molar equivalent [eq.] of Bio-dCA). Raltegravir and recombinant GST-9G8 were used as a negative control competitor or as negative protein-binding control, respectively.
DYNABEADS® MYONE™ Streptavidin T1 (12.5 μl slurry) (Invitrogen) were pre-saturated with 1.88 μl of 1 mM in DMSO of Biotin alone or Bio-dCA and incubated for 1 h at room temperature with orbital rocking, plus an additional 30 min with Biotin (0.63 μl of 1 mM in DMSO). Protein extracts (250 μg per sample) were incubated with the pre-saturated beads in lysis buffer supplemented with 0.1% BSA for 1 h at 4° C. with orbital rocking. After incubation, the beads were washed three times with lysis buffer.
For the pull-down of recombinant Tat (#2222 of NIH) and GST-9G8, streptavidin-agarose beads (40 μl slurry) were pre-saturated with 1.5 μl of 1 mM in DMSO, Biotin alone, or Bio-dCA and incubated for 1 h at room temperature. […] After incubation, the beads were washed three times with PBS and proteins were eluted as before.

In the next data set the test system is HIV. Put plainly: p24 production from CD4+ T cells of viremic HIV-infected subjects. The note with it: 100 nM dCA added to ARVs. It counts as cell-based, human. As to the method: Viral production was measured in the supernatant by a sensitive in-house ELISA for capsid p24 and normalized to the negative control (Mock). Statistical significance was assessed by a paired t-test.
All patients provided written informed consent, according to the guidelines of the ethics committee of the Oregon Health and Science University. […] Viral production was measured in the supernatant by a sensitive in-house ELISA specific for the viral capsid protein, p24. […] Viral production was measured by quantification of viral particle-associated RNA by ultra-sensitive two-step quantitative real-time reverse transcription-PCR (RT-qPCR). Briefly, viral particles in the cell culture supernatant were pelleted by centrifugation (60 min, 25000 g at 4° C.). To generate the standard curve, a sample of LAI-HIV with known titer was pelleted in the same run. After centrifugation, viral RNA was extracted with the QIAamp viral RNA extraction kit (Qiagen) according to the manufacturer's instructions.
Cells were grown in IL-2 to increase viability.

Data set [4] concerns HIV-1 pNL4-3. Put plainly: Chronically HIV-1 infected HeLa-CD4 cells, viral RNA by qRT-PCR / p24. It counts as cell-based. As for the experimental part:
FIG. 1G: p24 antigen quantification. Viral supernatants recovered from cells described in FIG. 1B, grown for 60 days, were assayed for their p24 antigen content using a sandwich ELISA kit. Error bars represent standard deviations.
First-strand cDNA from RNA for qPCR was prepared using […]™ first-strand cDNA kit (Invitrogen), following the manufacturer's instructions, using approximately 5 μg of RNA as starting material and random hexamers as first-strand primers. Quantitative PCR was performed with an aliquot of cDNA as template, using […]® 480 SYBR Green I Master (Roche) in a 20 μL reaction according to the manufacturer's instructions. […] The primers used were as follows: […]
Such an early time point rules out de novo infections. […] This conclusion was further supported by the fact that treatment of cells that were chronically infected, and therefore continuously shedding the virus (without incurring new infections, due to down-regulation of CD4 from the cell surface), reduced virus production to undetectable levels (FIG. 1F). […] Results were similar when viral release from cells treated for 60 days were measured by p24 enzyme-linked immunosorbent assay (ELISA) (FIG. 1G).
In general terms: Quantitative PCR measures a nucleic acid by following its amplification.

Another data set has as its system HeLa-CD4 cells. Put plainly: MTT mitochondrial metabolic activity (cell viability). It counts as cell-based.

Sequence of CDK11 (P21127 whole entry): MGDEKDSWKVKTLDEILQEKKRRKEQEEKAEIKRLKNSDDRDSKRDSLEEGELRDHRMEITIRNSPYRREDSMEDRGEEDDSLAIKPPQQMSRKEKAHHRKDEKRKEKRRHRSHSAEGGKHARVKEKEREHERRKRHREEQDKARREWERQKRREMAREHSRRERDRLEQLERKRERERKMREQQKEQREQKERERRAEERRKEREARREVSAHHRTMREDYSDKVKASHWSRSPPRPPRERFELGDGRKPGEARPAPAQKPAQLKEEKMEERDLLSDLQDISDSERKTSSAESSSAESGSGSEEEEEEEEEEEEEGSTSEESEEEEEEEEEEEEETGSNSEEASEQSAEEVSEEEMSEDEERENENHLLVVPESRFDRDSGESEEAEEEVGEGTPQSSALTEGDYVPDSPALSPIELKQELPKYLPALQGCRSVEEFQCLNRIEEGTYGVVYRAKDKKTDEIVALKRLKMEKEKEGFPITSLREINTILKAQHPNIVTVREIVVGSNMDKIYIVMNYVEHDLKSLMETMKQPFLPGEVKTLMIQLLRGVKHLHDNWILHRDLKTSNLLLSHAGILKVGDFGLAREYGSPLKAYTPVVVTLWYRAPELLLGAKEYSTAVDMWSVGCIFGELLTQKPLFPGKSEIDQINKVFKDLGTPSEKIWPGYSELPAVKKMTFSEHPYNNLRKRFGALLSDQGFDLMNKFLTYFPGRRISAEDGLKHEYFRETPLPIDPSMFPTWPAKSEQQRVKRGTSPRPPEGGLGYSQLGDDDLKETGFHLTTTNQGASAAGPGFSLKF

Take `CN(C)[C@H]1C[C@@]23CC[C@@]4(O2)C(=CC[C@]2(C)C(c5ccc6ccncc6c5)=CC[C@H]24)C=C3[C@@H](O)[C@@H]1O` [dCA, didehydro-Cortistatin A]: the “in vitro CDK11 kinase activity” value on CDK11 is on record as “unable to block; also recorded: did not inhibit”. Also, the “T1/2 hepatic microsomes, Mouse” value in data set [1] amounted to 3.02 h. Moreover, the aqueous solubility result in data set [2] was “high aqueous solubility; also recorded: highly soluble in water”. Besides, the “maximal inhibition following acute infection” value in the data set on HIV-1 pNL4-3 [3] (acute infection) was 75-85%. For the same compound, the EC50 (commonly the concentration needed to bring the measured effect to its halfway point) in the data set on HIV-1 pNL4-3 [3] (highest MOI, 48 h post infection, read-out: EC50, inhibition of transcription (β-gal activity)) is 2.6 nM; in the data set with HIV-1 pNL4-3 [4] (read-out: EC50 for abrogating chronic HIV infection) it was less than 0.1 nM; with HIV-1 pNL4-3 [4] (treatment for 10 or 60 days, read-out: EC50, reduction of viral cellular RNA levels) it was no less than 0.1 nM. For the same compound, the “reduction in the EC50 by pre-treatment of cells” value in the data set on HIV-1 pNL4-3 [3] (pre-treatment for 24 h prior to infection) is given as 7 fold. For the same compound, the reduction of infectivity with HIV-1 pNL4-3 [3] (two-day acute infection assay) is given as 75-80%. In addition, in the data set on Tat, the “interaction with Tat (pull-down)” value was “interacted directly”. Besides, the “further decrease of p24 production on addition to the ARVs” value in the data set with HIV is given as 20%. For the same compound, in the data set on HIV-1 pNL4-3 [4] (chronically infected cells grown in 100 nM for longer periods), the “inhibition of viral replication” value is 99%. Moreover, the 90% effect concentration (EC90) (as a rule, the point of the concentration-response curve where the effect stands at 90%) with HIV-1 pNL4-3 [4] (treatment for 10 or 60 days, read-out: EC90, reduction of viral cellular RNA levels) was less than 10 nM. The CC50 was determined as 20000 nM in the data set with HeLa-CD4 cells and 20000 nM in the data set with HeLa-CD4 cells (cultured cell lines or freshly isolated PBLs, read-out: cytotoxic concentration (CC50)).
